Laboratory results: patent US20070197629A1, “Indole derivative and application thereof” (priority 2004, published 2007)
Where two headings read alike, the source gives them in different places.

Experiments:
osteoclasts [1] = assay: Assay of influences on osteoclasts: tartaric acid-resistant acid phosphatase (TRAP) activity in cultured goldfish scales; assay type: cell-based; conditions: for TRAP activity, amount of paranitrophenol produced: scales cultured at 15° C. for 6 hours, control 3.43 ± 0.04
Source text: In accordance with the method described in N. Suzuki and A. Hattori, J. Pineal Res., 33, 253-258, 2002, influences of an indole derivative on bone cells were inspected.
A female goldfish (body weight: about 30 g) was put under anesthesia with MS222 (ethyl 3-aminobenzoate, methane sulfonic acid salt) (Aldrich), and a desired number of scales were peeled off. The scales were washed twice in Eagle's minimum essential medium (ICN Biomedicals Inc.) comprising 1% antibiotics (a mixture of penicillin and streptomycin). Medium of the same type was introduced into each well of a 24-well plate in amounts of 1 ml, several scales were introduced to each well (8 scales in general), and 10^−4, 10^−6, and 10^−8 M indole derivatives were applied to separate wells. Subsequently, the scales were cultured at 15° C. for 6 hours. Also, a group to which no indole derivative had been added was prepared (a control group), and influences thereof on osteoclasts and osteoblasts were compared. Two control groups, i.e., a group for inspecting osteoclasts and a group for inspecting osteoblasts, were provided. Specifically, a total of 8 wells were provided for the control and 10^−4, 10^−6, and 10^−8 M indole derivatives (2 wells for each thereof). Accordingly, 3 types of indole derivatives can be inspected with the use of a 24-well plate.
After the culture, medium was removed, 0.05 M cacodylate buffer (pH 7.4) containing 10% formalin was added, and the scales were immobilized. The scales were stored in 0.05 M cacodylate buffer at 4° C. until the measurement of enzyme activity was initiated.
2-Bromomelatonin (a compound represented by formula (I) wherein X represents a bromine atom; R^1 represents a hydrogen atom; R^2 represents methyl; R^3, R^5 and R^6 each represent a hydrogen atom; and R^4 represents methyl), which was subjected to the test, was a known compound, and it was synthesized by the method described in M. Somei, Y. Fukui, M. Hasegawa, N. Oshikiri, and T. Hayashi, Heterocycles, 53, 1725-1736, 2000. • (1) Assay of Influences Imposed on Osteoclasts, i.e., Assay of Tartaric Acid-Resistant Acid Phosphatase (TRAP) Activity
The immobilized scales were removed from the plate, and the weights thereof were measured. Thereafter, the scales were introduced into a 96-well microplate, 200 μl of 100 mM acetate buffer containing 20 mM tartaric acid and 10 mM paranitrophenol phosphate (substrate) was introduced to each well, reaction was allowed to proceed at 25° C. for 1 hour, and an aqueous solution of 2N sodium hydroxide (50 μl) was then added in order to terminate the reaction. The solution after the reaction (150 μl) was transferred to the other microplate, and the amount of paranitrophenol (pNP) generated by TRAP was measured using a spectrophotometer (405 nm). The osteoclast activity was indicated in terms of the amount of paranitrophenol phosphate decomposed and that of pNP produced within 1 hour per mg of the scales.

osteoblasts [2] = assay: Assay of influences on osteoblasts: alkaline phosphatase (ALP) activity in cultured goldfish scales; assay type: cell-based; conditions: for ALP activity, amount of paranitrophenol produced: scales cultured at 15° C. for 6 hours, control 6.00-6.17 (per table)
Source text: In accordance with the method described in N. Suzuki and A. Hattori, J. Pineal Res., 33, 253-258, 2002, influences of an indole derivative on bone cells were inspected. A female goldfish (body weight: about 30 g) was put under anesthesia with MS222 (ethyl 3-aminobenzoate, methane sulfonic acid salt) (Aldrich), and a desired number of scales were peeled off. The scales were washed twice in Eagle's minimum essential medium (ICN Biomedicals Inc.) comprising 1% antibiotics (a mixture of penicillin and streptomycin). Medium of the same type was introduced into each well of a 24-well plate in amounts of 1 ml, several scales were introduced to each well (8 scales in general), and 10^−4, 10^−6, and 10^−8 M indole derivatives were applied to separate wells. Subsequently, the scales were cultured at 15° C. for 6 hours. Also, a group to which no indole derivative had been added was prepared (a control group), and influences thereof on osteoclasts and osteoblasts were compared. Two control groups, i.e., a group for inspecting osteoclasts and a group for inspecting osteoblasts, were provided. Specifically, a total of 8 wells were provided for the control and 10^−4, 10^−6, and 10^−8 M indole derivatives (2 wells for each thereof). Accordingly, 3 types of indole derivatives can be inspected with the use of a 24-well plate. After the culture, medium was removed, 0.05 M cacodylate buffer (pH 7.4) containing 10% formalin was added, and the scales were immobilized. The scales were stored in 0.05 M cacodylate buffer at 4° C. until the measurement of enzyme activity was initiated. • (2) Assay of Influences Imposed on Osteoblasts, i.e., Assay of Alkaline Phosphatase (ALP) Activity The immobilized scales were removed from the plate, and the weights thereof were measured. Thereafter, the scales were introduced into a 96-well microplate, 200 μl of 100 mM tris-HCl buffer (pH 9.5) comprising 10 mM paranitrophenol phosphate (substrate), 1 mM magnesium chloride, and 0.1 mM zinc chloride was introduced into each well, the reaction was allowed to proceed at 25° C. for 1 hour, and an aqueous solution of 2N sodium hydroxide (50 μl) was added thereto in order to terminate the reaction. Thereafter, 150 μl of the solution after the reaction was transferred to the other microplate, and the amount of pNP generated by ALP was measured using a spectrophotometer (405 nm) to determine the activity.

osteoblasts [3] = conditions: reported in N. Suzuki and A. Hattori, J. Pineal Res., 33, 253-258, 2002; cited from earlier work
osteoclasts [4] = conditions: reported in N. Suzuki and A. Hattori, J. Pineal Res., 33, 253-258, 2002; cited from earlier work

SMILES	TRAP activity, amount of paranitrophenol produced (osteoclasts [1]; indole derivative 10^−4 M)	TRAP activity, amount of paranitrophenol produced (osteoclasts [1]; indole derivative 10^−6 M)	TRAP activity, amount of paranitrophenol produced (osteoclasts [1]; indole derivative 10^−8 M)	melting point	ALP activity, amount of paranitrophenol produced (osteoblasts [2]; indole derivative 10^−4 M)	ALP activity, amount of paranitrophenol produced (osteoblasts [2]; indole derivative 10^−6 M)	ALP activity, amount of paranitrophenol produced (osteoblasts [2]; indole derivative 10^−8 M)	Influence on osteoclasts (in words) (osteoclasts [1]; summary of FIG. 1A, 1B, Table 1)	Influence on osteoblasts (in words) (osteoblasts [3])	Influence on osteoblasts (in words) (osteoblasts [2]; summary of FIG. 2A, 2B, Tables 2A to 2G)	Influence on osteoclasts (in words) (osteoclasts [4])
C=CCn1c(Br)c(CCNC(C)=O)c2c(Br)c(OC)c(Br)cc21 [1-Allyl-2,4,6-tribromomelatonin, N-acetyl-1-allyl-2,4,6-tribromo-5-methoxyindole-3-ethanamine]	2.87 ± 0.10 nmol/mg of scales/hr	2.89 ± 0.12 nmol/mg of scales/hr	2.99 ± 0.13 nmol/mg of scales/hr	142 to 143 °C	6.44 ± 0.44 nmol/mg of scales/hr	6.79 ± 0.63 nmol/mg of scales/hr	8.30 ± 0.68 nmol/mg of scales/hr				
COc1c(Br)cc2c(c1Br)c(CCNC(C)=O)c(Br)n2Cc1ccccc1 [1-Benzyl-2,4,6-tribromomelatonin, N-acetyl-1-benzyl-2,4,6-tribromo-5-methoxyindole-3-ethanamine]	2.59 ± 0.24 nmol/mg of scales/hr	2.83 ± 0.20 nmol/mg of scales/hr	2.85 ± 0.20 nmol/mg of scales/hr	218 to 219 °C	7.77 ± 0.37 nmol/mg of scales/hr	7.92 ± 0.55 nmol/mg of scales/hr	8.44 ± 1.00 nmol/mg of scales/hr				
COc1c(Br)c(Br)c2[nH]c(Br)c(CCNC(C)=O)c2c1Br [2,4,6,7-Tetrabromomelatonin, 2,4,6,7-tetrabromomelatonin]	2.71 ± 0.17 nmol/mg of scales/hr	2.83 ± 0.16 nmol/mg of scales/hr	3.19 ± 0.14 nmol/mg of scales/hr		6.12 ± 0.41 nmol/mg of scales/hr	6.12 ± 0.50 nmol/mg of scales/hr	7.90 ± 0.73 nmol/mg of scales/hr				
C#CCn1c(Br)c(CCNC(C)=O)c2c(Br)c(OC)c(Br)cc21 [2,4,6-Tribromo-1-propargylmelatonin, N-acetyl-2,4,6-tribromo-5-methoxy-1-propargylindole-3-ethanamine]	2.78 ± 0.13 nmol/mg of scales/hr	2.82 ± 0.15 nmol/mg of scales/hr	2.78 ± 0.15 nmol/mg of scales/hr		7.55 ± 0.76 nmol/mg of scales/hr	8.66 ± 0.47 nmol/mg of scales/hr	7.07 ± 0.75 nmol/mg of scales/hr				
COc1c(Br)cc2[nH]c(Br)c(CCNC(C)=O)c2c1Br [2,4,6-Tribromomelatonin, N-acetyl-2,4,6-tribromo-5-methoxyindole-3-ethanamine]	2.93 ± 0.18 nmol/mg of scales/hr	2.87 ± 0.13 nmol/mg of scales/hr	2.88 ± 0.08 nmol/mg of scales/hr		6.00 ± 0.38 nmol/mg of scales/hr	6.61 ± 0.38 nmol/mg of scales/hr	7.58 ± 0.70 nmol/mg of scales/hr				
COc1c(Br)cc2c(c1Br)c(CCNC(C)=O)c(Br)n2S(=O)(=O)c1ccc(C)cc1 [2,4,6-tribromo-1-tosyl-melatonin, N-acetyl-2,4,6-tribromo-5-methoxy 1-tosylindole-3-ethanamine]				215 to 216 °C							
COc1ccc2[nH]c(Br)c(CCNC(C)=O)c2c1 [2-Bromomelatonin]	2.83 ± 0.23 nmol/mg of scales/hr	2.62 ± 0.17 nmol/mg of scales/hr	3.02 ± 0.23 nmol/mg of scales/hr		5.72 ± 0.47 nmol/mg of scales/hr	6.03 ± 0.66 nmol/mg of scales/hr	7.41 ± 0.35 nmol/mg of scales/hr				
COc1ccc2[nH]cc(CCNC(C)=O)c2c1 [Melatonin, N-acetyl-5-methoxytryptamine, reference compound]	2.67 ± 0.11 nmol/mg of scales/hr	2.69 ± 0.15 nmol/mg of scales/hr	2.91 ± 0.13 nmol/mg of scales/hr		5.19 ± 0.36 nmol/mg of scales/hr	5.42 ± 0.25 nmol/mg of scales/hr	5.45 ± 0.27 nmol/mg of scales/hr	suppressively acts	act suppressively	suppressively acts	act suppressively
